The values that follow come from patent US4725683A, “Fluorophenoxyphenoxypropionates and derivatives thereof” (The Dow Chemical Company, priority 1985, dated 1988).

Holding throughout (test): Preemergent activity
Assay type in all cases: in vivo

One test has as its system Johnson Grass. The settings on record: Sorghum halepense, pre-emergence, read-out: Preemergence Control; for pest or weed control at 140 g/ha: 0.14 kgs/hectare; for pest or weed control at 280 g/ha: 0.28 kgs/hectare; for pest or weed control at 560 g/ha: 0.56 kgs/hectare; for pest or weed control at 1120 g/ha: 1.12 kgs/hectare; for pest or weed control at 70 g/ha: 0.07 kgs/hectare. As for the experimental part: (§1) In a representative operation, 2-[4-(2-fluoro-4-trifluoromethylphenoxy)phenoxy]propionic acid methyl ester, to be utilized in a series of tests, is dissolved in acetone to one half of the final volume (twice the final concentration) to be used and the acetone solution in each case is admixed with an equal volume of water containing 0.1 percent by weight of Tween-20 surface active material (Tween-20 is a trademark of Atlas Chemical Company). The composition, generally in the nature of an emulsion, was employed to treat separate respective seed beds of sandy loam soil of good nutrient content wherein each seed bed contained separate groups of good viable seeds, each group being of one of a known plant species. The various beds were positioned side by side and exposed to substantially identical conditions of temperature and light. Each bed was maintained so as to prevent any interaction with the test compound in different seed beds. Each seed bed was treated with the composition as a spray employing conventional spraying equipment to deposit a predetermined amount of the compound uniformly throughout the surface of the bed. Another seed bed was treated only with the acetone-Tween-20 water mixture with no chemical added to serve as a control.

In a further test the test system is Wild Oats. The note with it: Avena fatua, pre-emergence, read-out: Preemergence Control; for pest or weed control at 140 g/ha: 0.14 kgs/hectare; for pest or weed control at 280 g/ha: 0.28 kgs/hectare; for pest or weed control at 560 g/ha: 0.56 kgs/hectare; for pest or weed control at 1120 g/ha: 1.12 kgs/hectare; for pest or weed control at 70 g/ha: 0.07 kgs/hectare. On the procedure:
as §1

The next test has as its system Yellow Foxtail. The note with it: Setaria, pre-emergence, read-out: Preemergence Control; for pest or weed control at 140 g/ha: 0.14 kgs/hectare; for pest or weed control at 280 g/ha: 0.28 kgs/hectare; for pest or weed control at 560 g/ha: 0.56 kgs/hectare; for pest or weed control at 1120 g/ha: 1.12 kgs/hectare; for pest or weed control at 70 g/ha: 0.07 kgs/hectare. On the procedure:
as §1

A further test deals with Barnyard Grass. The settings on record: Echinochloa crus-galli, pre-emergence, read-out: Preemergence Control; for pest or weed control at 140 g/ha: 0.14 kgs/hectare; for pest or weed control at 280 g/ha: 0.28 kgs/hectare; for pest or weed control at 560 g/ha: 0.56 kgs/hectare; for pest or weed control at 1120 g/ha: 1.12 kgs/hectare; for pest or weed control at 70 g/ha: 0.07 kgs/hectare. As for the experimental part: as §1

Another test concerns Wheat. The settings on record: Triticum aestivum, pre-emergence, read-out: Preemergence Control; for plant injury at 70 g/ha: 0.07 kgs/hectare; for plant injury at 140 g/ha: 0.14 kgs/hectare; for plant injury at 280 g/ha: 0.28 kgs/hectare; for plant injury at 560 g/ha: 0.56 kgs/hectare; for plant injury at 1120 g/ha: 1.12 kgs/hectare. On the procedure:
as §1

As to `COc1cccc(NC(=O)C(C)Oc2ccc(Oc3ccc(Br)cc3F)cc2)c1` (stereo not drawn), in the test on Johnson Grass, the pest or weed control at 140 g/ha amounted to 0%, the pest or weed control at 280 g/ha turned out to be 30%, the pest or weed control at 560 g/ha worked out at 30% and the pest or weed control at 1120 g/ha amounted to 100%. For the same compound, in the test with Wild Oats, the pest or weed control at 140 g/ha amounted to 0%, the pest or weed control at 280 g/ha was 0%, the pest or weed control at 560 g/ha was found to be 40% and the pest or weed control at 1120 g/ha worked out at 30%. Further, in the test on Yellow Foxtail, the pest or weed control at 140 g/ha came to 0%, the pest or weed control at 280 g/ha is 20%, the pest or weed control at 560 g/ha is 80% and the pest or weed control at 1120 g/ha is 100%. Besides, in the test with Barnyard Grass, the pest or weed control at 140 g/ha was found to be 0%, the pest or weed control at 280 g/ha was 100%, the pest or weed control at 560 g/ha was found to be 100% and the pest or weed control at 1120 g/ha came out at 100%. Moreover, in the test on Wheat, the plant injury at 70 g/ha is 0%, the plant injury at 140 g/ha turned out to be 0%, the plant injury at 280 g/ha was found to be 0% and the plant injury at 560 g/ha was found to be 0%. Also, in the test on Wheat, the plant injury at 1120 g/ha came out at 0%.

With `CC(Oc1ccc(Oc2ccc(Br)cc2F)cc1)C(=O)OC1CCCC1` (stereo not drawn), in the test on Johnson Grass, the pest or weed control at 140 g/ha is 0%, the pest or weed control at 280 g/ha was determined as 40%, the pest or weed control at 560 g/ha was 100% and the pest or weed control at 1120 g/ha is 100%. For the same compound, in the test with Wild Oats, the pest or weed control at 140 g/ha worked out at 0%, the pest or weed control at 280 g/ha came to 30%, the pest or weed control at 560 g/ha came out at 100% and the pest or weed control at 1120 g/ha came to 100%. For the same compound, in the test with Yellow Foxtail, the pest or weed control at 140 g/ha came out at 0%, the pest or weed control at 280 g/ha came to 100%, the pest or weed control at 560 g/ha amounted to 100% and the pest or weed control at 1120 g/ha was 100%. Moreover, in the test on Barnyard Grass, the pest or weed control at 140 g/ha turned out to be 50%, the pest or weed control at 280 g/ha was 100%, the pest or weed control at 560 g/ha is 100% and the pest or weed control at 1120 g/ha was 100%. Besides, in the test on Wheat, the plant injury at 70 g/ha came out at 0%, the plant injury at 140 g/ha came to 0%, the plant injury at 280 g/ha is 0% and the plant injury at 560 g/ha was found to be 0%. In addition, in the test on Wheat, the plant injury at 1120 g/ha was determined as 80%.

Turning to `CC(Oc1ccc(Oc2ccc(Br)cc2F)cc1)C(=O)O` (stereo not drawn) [OH, 2-(4-(4-Bromo-2-fluorophenoxy)phenoxy)propionic acid], in the test on Johnson Grass, the pest or weed control at 70 g/ha was determined as 0%, the pest or weed control at 140 g/ha was determined as 60%, the pest or weed control at 280 g/ha stood at 80% and the pest or weed control at 560 g/ha worked out at 100%. The pest or weed control at 1120 g/ha in the test on Johnson Grass was found to be 100%. In the test on Wild Oats, the pest or weed control at 70 g/ha is 0%, the pest or weed control at 140 g/ha turned out to be 100%, the pest or weed control at 280 g/ha was determined as 90% and the pest or weed control at 560 g/ha came to 95%. Besides, the pest or weed control at 1120 g/ha in the test on Wild Oats amounted to 100%. Besides, in the test on Yellow Foxtail, the pest or weed control at 70 g/ha worked out at 0%, the pest or weed control at 140 g/ha stood at 0%, the pest or weed control at 280 g/ha came out at 90% and the pest or weed control at 560 g/ha is 100%. The pest or weed control at 1120 g/ha in the test with Yellow Foxtail was 100%. In the test on Barnyard Grass, the pest or weed control at 70 g/ha stood at 50%, the pest or weed control at 140 g/ha was determined as 95%, the pest or weed control at 280 g/ha worked out at 100% and the pest or weed control at 560 g/ha was 100%. In addition, the pest or weed control at 1120 g/ha with Barnyard Grass came out at 100%. Also, in the test with Wheat, the plant injury at 70 g/ha came to 0%, the plant injury at 140 g/ha stood at 0%, the plant injury at 280 g/ha was 0% and the plant injury at 560 g/ha turned out to be 0%. In addition, the plant injury at 1120 g/ha in the test with Wheat is 30%.

As to `CCOCCOC(=O)C(C)Oc1ccc(Oc2ccc(Br)cc2F)cc1` (stereo not drawn) [O(CH2)2 OC2 H5], in the test on Johnson Grass, the pest or weed control at 70 g/ha worked out at 0%, the pest or weed control at 140 g/ha turned out to be 0%, the pest or weed control at 280 g/ha was determined as 0% and the pest or weed control at 560 g/ha came out at 60%. Moreover, the pest or weed control at 1120 g/ha in the test on Johnson Grass turned out to be 60%. In the test on Wild Oats, the pest or weed control at 70 g/ha amounted to 0%, the pest or weed control at 140 g/ha came to 30%, the pest or weed control at 280 g/ha turned out to be 30% and the pest or weed control at 560 g/ha came to 100%. Also, in the test on Wild Oats, the pest or weed control at 1120 g/ha came out at 100%. For the same compound, in the test with Yellow Foxtail, the pest or weed control at 70 g/ha turned out to be 0%, the pest or weed control at 140 g/ha stood at 0%, the pest or weed control at 280 g/ha came to 80% and the pest or weed control at 560 g/ha was 100%. In the test with Yellow Foxtail, the pest or weed control at 1120 g/ha worked out at 100%. In the test on Barnyard Grass, the pest or weed control at 70 g/ha came out at 0%, the pest or weed control at 140 g/ha is 90%, the pest or weed control at 280 g/ha was determined as 95% and the pest or weed control at 560 g/ha is 100%. Besides, the pest or weed control at 1120 g/ha with Barnyard Grass was found to be 100%. In the test on Wheat, the plant injury at 70 g/ha is 0%, the plant injury at 140 g/ha was found to be 0%, the plant injury at 280 g/ha was 0% and the plant injury at 560 g/ha was found to be 0%. Also, the plant injury at 1120 g/ha in the test on Wheat was found to be 20%.

As to `C#CCOC(=O)C(C)Oc1ccc(Oc2ccc(Br)cc2F)cc1` (stereo not drawn) [OCH2CCH], in the test with Johnson Grass, the pest or weed control at 70 g/ha is 0%, the pest or weed control at 140 g/ha was 20%, the pest or weed control at 280 g/ha amounted to 50% and the pest or weed control at 560 g/ha was 100%. Besides, the pest or weed control at 1120 g/ha in the test on Johnson Grass amounted to 100%. Moreover, in the test with Wild Oats, the pest or weed control at 70 g/ha was 0%, the pest or weed control at 280 g/ha came out at 50%, the pest or weed control at 560 g/ha is 50% and the pest or weed control at 1120 g/ha was 70%. In the test on Yellow Foxtail, the pest or weed control at 70 g/ha was 0%, the pest or weed control at 140 g/ha came to 60%, the pest or weed control at 280 g/ha is 95% and the pest or weed control at 560 g/ha was found to be 100%. Moreover, the pest or weed control at 1120 g/ha with Yellow Foxtail stood at 100%. In the test with Barnyard Grass, the pest or weed control at 70 g/ha is 0%, the pest or weed control at 140 g/ha is 20%, the pest or weed control at 280 g/ha came to 100% and the pest or weed control at 560 g/ha turned out to be 100%. The pest or weed control at 1120 g/ha in the test with Barnyard Grass stood at 100%. In addition, in the test on Wheat, the plant injury at 70 g/ha worked out at 0%, the plant injury at 140 g/ha was determined as 0%, the plant injury at 280 g/ha amounted to 0% and the plant injury at 560 g/ha is 0%. Further, the plant injury at 1120 g/ha with Wheat worked out at 0%.

`C=CCOC(=O)C(C)Oc1ccc(Oc2ccc(Br)cc2F)cc1` (stereo not drawn) [OCH2 CCH2]: in the test on Johnson Grass, the pest or weed control at 70 g/ha worked out at 0%, the pest or weed control at 140 g/ha came out at 0%, the pest or weed control at 280 g/ha amounted to 80% and the pest or weed control at 560 g/ha turned out to be 90%. For the same compound, the pest or weed control at 1120 g/ha with Johnson Grass was determined as 100%. Further, in the test on Wild Oats, the pest or weed control at 70 g/ha turned out to be 0%, the pest or weed control at 140 g/ha amounted to 0%, the pest or weed control at 280 g/ha is 40% and the pest or weed control at 560 g/ha worked out at 70%. In addition, the pest or weed control at 1120 g/ha in the test on Wild Oats is 70%. Also, in the test with Yellow Foxtail, the pest or weed control at 70 g/ha is 30%, the pest or weed control at 140 g/ha came to 30%, the pest or weed control at 280 g/ha stood at 90% and the pest or weed control at 560 g/ha is 100%. The pest or weed control at 1120 g/ha in the test on Yellow Foxtail was 100%. For the same compound, in the test on Barnyard Grass, the pest or weed control at 70 g/ha was 95%, the pest or weed control at 140 g/ha came out at 100%, the pest or weed control at 280 g/ha is 100% and the pest or weed control at 560 g/ha came to 100%. Besides, the pest or weed control at 1120 g/ha with Barnyard Grass came to 100%. Also, in the test with Wheat, the plant injury at 70 g/ha came to 0%, the plant injury at 140 g/ha was 0%, the plant injury at 280 g/ha amounted to 0% and the plant injury at 560 g/ha was 0%. For the same compound, the plant injury at 1120 g/ha in the test on Wheat was 70%.
